Data as given in US9249208B2, “Citrulline peptides derived from fibrin and recognized by rheumatoid arthritis specific autoantibodies, and the use thereof” (Biomerieux, priority 2004, dated 2016).
Where no end group is shown, it is not given here. [ ]: non-standard residue; d: D form. Cit = NC(=O)NCCC[C@H](N)C(=O)O

Assays:
[1] = system: anti-citrullinated protein autoantibodies (ACPAs); assay: ELISA of citrullinated/native fibrin peptide pairs with serum mixtures A and B and control mixture (delta OD); format: binding, human; details: mean of two determinations
Protocol: Each pair of peptides (citrullinated and noncitrullinated) was assayed by ELISA with a mixture, in equal parts, of 10 sera having no ACPAs (control mixture) and with the 2 mixtures A and B described in Example 1.
Each pair of peptides (native and citrullinated form) was tested on the same plate and a pair of control peptides—citrullinated “filaggrin” peptide cfc6 and its corresponding native peptide cf0 (Schellekens G A, 1998, mentioned above)—was included in each experiment, which made it possible to calculate an inter-assay coefficient of variation and to perform corrections.
All the incubations were carried out for 1 h at 4° C. and were followed by washing in PBS-0.1% Tween. The peroxidase activity was visualized with a solution of ortho-phenylenediamine (2 mg/ml—Sigma) in hydrogen peroxide (0.03%—Sigma). The reaction was stopped after 5 minutes by adding 4M sulfuric acid, and the optical density (OD) at 492 nm was measured by virtue of an automatic spectrophotometer (Multiskan, Thermo Labsystems).
The specific reactivity of the mixtures of sera with regard to the citrullinated peptides corresponded to the difference between the OD obtained with the citrullinated peptide and that obtained with the corresponding native peptide (delta OD). The results correspond to the mean of two determinations. Any citrullinated peptide making it possible to obtain a delta OD of greater than 0.250 for at least one of the two mixtures A and B after coating in at least one of the three buffers, was considered to be reactive.

[2] = system: anti-citrullinated protein autoantibodies (ACPAs); assay: ELISA of reactive citrullinated fibrin peptides with the 20 individual sera of mixtures A and B; format: binding, human; details: for Number of positive sera: sera with delta OD not <0.25 out of sera tested (20, or 10 of mixture A only); for delta OD: best coating buffer per peptide
Protocol: The 14 peptides carrying the most reactive epitopes (delta OD≧0.5 for one or other of the mixtures of serum (A and B) with at least one of the three coating buffers) were tested independently with the 20 sera constituting the mixtures A and B, in order to evaluate the reactivity profile of each of these peptides. The tests were carried out by ELISA under the same conditions as in Example 2 above, with the exception that, for each pair of peptides, the coating buffer selected was that that had made it possible to obtain the strongest reactivity with respect to this peptide during the screening (the buffer for which the sum of the delta ODs obtained respectively for the serum mixtures A and B was at a maximum). […] Thus, for each serum, the dilution that made it possible to obtain an OD of 1 by ELISA on deiminated fibrinogen was selected (Nogueira L, 2002, mentioned above). The dilutions ranged from 1/20 to 1/2700.

[3] = Mixture A of sera 1/50, coating buffer PBS pH 7.4
[4] = Mixture A of sera 1/50, coating buffer acetate pH 5.0
[5] = Mixture A of sera 1/50, coating buffer carbonate pH 9.0
[6] = Mixture B of sera 1/50, coating buffer PBS pH 7.4
[7] = Mixture B of sera 1/50, coating buffer acetate pH 5.0
[8] = Mixture B of sera 1/50, coating buffer carbonate pH 9.0

| Substance | delta OD (citrullinated minus native peptide, 492 nm) [1, 3] | delta OD (citrullinated minus native peptide, 492 nm) [1, 4] | delta OD (citrullinated minus native peptide, 492 nm) [1, 5] | delta OD (citrullinated minus native peptide, 492 nm) [1, 6] | delta OD (citrullinated minus native peptide, 492 nm) [1, 7] | delta OD (citrullinated minus native peptide, 492 nm) [1, 8] | Number of positive sera [2] | delta OD ([2]; serum 97.0530, dilution 1/50) | delta OD ([2]; serum 97.0796, dilution 1/500) | delta OD ([2]; serum 97.0311, dilution 1/200) | delta OD ([2]; serum 97.0388, dilution 1/50) | delta OD ([2]; serum 97.1474, dilution 1/20) | further results |
| --- | --- | --- | --- | --- | --- | --- | --- | --- | --- | --- | --- | --- | --- |
| α546-560Cit547: citrullinated synthetic peptide, fibrin α-chain residues 546-560 (S[Cit]GSESGIFTNTKES) | 0.74 | 0.38 | 0.33 | 0.15 | 0.05 | 0.16 | 2/10 | 0.44 | 1.18 | – | – | – | – |
| α621-635Cit621,627,630: citrullinated synthetic peptide, fibrin α-chain residues 621-635; fits SEQ ID NO: 12 X1GHAKSX2PVX3GIHTS ([Cit]GHAKS[Cit]PV[Cit]GIHTS) | 1.57 | 0.25 | 1.17 | 1.51 | 0.18 | 1.20 | 10/20 | – | 0.69 | 0.37 | 2.71 | 0.59 | delta OD ([2]; serum 97.0169, dilution 1/400): 0.80; delta OD ([2]; serum 97.0244, dilution 1/2700): 0.50; delta OD ([2]; serum 97.0468, dilution 1/700): 0.81; delta OD ([2]; serum 97.0907, dilution 1/300): 1.04; delta OD ([2]; serum 97.1210, dilution 1/300): 0.37; delta OD ([2]; serum 97.1548, dilution 1/60): 3.29 |
| α501-515Cit510,512: citrullinated synthetic peptide, fibrin α-chain residues 501-515; fits SEQ ID NO: 3 SGIGTLDGFX1HX2HPD (SGIGTLDGF[Cit]H[Cit]HPD) | 0.92 | 0.16 | 0.15 | 2.60 | 0.72 | 0.79 | 9/20 | 0.69 | – | – | 2.88 | – | delta OD ([2]; serum 95.0256, dilution 1/35): 2.37; delta OD ([2]; serum 97.0323, dilution 1/120): 3.23; delta OD ([2]; serum 97.0506, dilution 1/75): 0.44; delta OD ([2]; serum 97.0524, dilution 1/200): 2.85; delta OD ([2]; serum 97.0794, dilution 1/50): 3.30; delta OD ([2]; serum 97.1436, dilution 1/150): 2.80; delta OD ([2]; serum 97.1715, dilution 1/300): 1.79 |
| α259-273Cit263,271: citrullinated synthetic peptide, fibrin α-chain residues 259-273 (second series) (MELE[Cit]PGGNEIT[Cit]GG) | 0.60 | 0.14 | 0.12 | 0.69 | 0.21 | 0.20 | 13/20 | – | – | 0.29 | – | 0.39 | delta OD ([2]; serum 97.0468, dilution 1/700): 0.32 |
| α36-50Cit38,42: citrullinated synthetic peptide, fibrin α-chain residues 36-50; fits SEQ ID NO: 2 GPX1VVEX2HQSACKDS (GP[Cit]VVE[Cit]HQSACKDS) | 2.69 | 4.00 | 3.43 | 2.65 | 4.27 | 2.64 | 12/20 | 2.97 | – | 0.71 | 3.32 | 1.93 | delta OD ([2]; serum 95.0256, dilution 1/35): 2.35; delta OD ([2]; serum 97.0323, dilution 1/120): 1.87; delta OD ([2]; serum 97.0459, dilution 1/60): 3.55; delta OD ([2]; serum 97.0524, dilution 1/200): 3.39; delta OD ([2]; serum 97.0794, dilution 1/50): 3.43; delta OD ([2]; serum 97.1436, dilution 1/150): 3.30; delta OD ([2]; serum 97.1715, dilution 1/300): 3.50; delta OD ([2]; serum 97.1795, dilution 1/50): 2.29 |
| β420-434Cit421: citrullinated synthetic peptide, fibrin β-chain residues 420-434 (P[Cit]KQCSKEDGGGWWY) | 0.48 | 0.36 | 0.44 | 0.00 | 0.00 | 0.00 | – | – | – | – | – | – | – |
| β433-447Cit436,445: citrullinated synthetic peptide, fibrin β-chain residues 433-447 (second series) (WYN[Cit]CHAANPNG[Cit]YY) | 0.58 | 0.41 | 0.67 | 0.00 | 0.00 | 0.03 | 2/10 | – | 0.71 | – | 1.14 | – | – |
| α396-410Cit404: citrullinated synthetic peptide, fibrin α-chain residues 396-410 (DSPGSGNA[Cit]PNNPDW) | 0.02 | 0.04 | 0.43 | 0.17 | 0.15 | 0.20 | – | – | – | – | – | – | – |
| α366-380Cit367: citrullinated synthetic peptide, fibrin α-chain residues 366-380 (E[Cit]GSAGHWTSESSVS) | 0.37 | 0.28 | 0.26 | 0.04 | 0.00 | 0.08 | – | – | – | – | – | – | – |
| α246-260Cit258: citrullinated synthetic peptide, fibrin α-chain residues 246-260 (PEWKALTDMPQM[Cit]ME) | 0.00 | 0.04 | 0.00 | 0.25 | 0.27 | 0.33 | – | – | – | – | – | – | – |
